From patent EP4707279A1, “SUBSTITUTED TRICYCLIC HETEROCYCLIC COMPOUND AS PHARMACEUTICAL FOR TREATMENT OR PREVENTION OF COVID-19” (priority 2023, dated 2024)

Tested on: SARS-CoV-2
Assay: CPE inhibition assay, anti-SARS-CoV-2 virus activity in vitro (Test Example 4)
Assay type: cell-based
Conditions: CPE inhibition at 10 µM; VeroE6-TMPRSS2 cells; MOI 0.01; third day post infection; average of three tests

SMILES	Anti SARS-CoV-2 activity
CCOC(=O)[C@@H]1CCC2=C3N(Cc4ccccc4)C(=O)N(Cc4ccccc4)C(=O)N3[C@H](Cc3ccccc3)C(=O)N21 [Compound 1B, Ethyl (6R,9S)-1,3,6-tribenzyl-2,4,7-trioxo-1,3,4,6,7,9,10,11-octahydro-2H-pyrrolo[2',1':3,4]pyridazine[1,2-a][1,3,5]triazine-9-carboxylate]	C (less than 1%)
O=C(O)[C@@H]1CC[C@H]2N1C(=O)[C@@H](Cc1ccccc1)N1C(=O)N(Cc3ccccc3)C(=O)N(Cc3ccccc3)[C@]21O [Compound 1C, (6R,9S,11aR,11bR)-1,3,6-Tribenzyl-11b-hydroxy-2,4,7-trioxo-2H-pyrrolo[2',1':3,4]pyridazino[1,2-a][1,3,5] triazine-9-carboxylic acid]	C (less than 1%)
O=C1[C@@H](Cc2ccccc2)N2C(=O)N(Cc3ccccc3)C(=O)N(Cc3ccccc3)[C@]2(O)[C@H]2CC[C@@H](CNCc3ccc4ccccc4c3)N12 [Compound 1F, (6R,9S,11aR,11bR)-1,3,6-Tribenzyl-11b-hydroxy-9-(((naphthalen-2-ylmethyl)amino)methyl)hexahydro-2H-pyrrolo[2',1':3,4]pyridazine[1,2-a][1,3,5]triazine-2,4,7(3H,6H)-trione]	C (less than 1%)
CC(C)[C@@H]1C(=O)N2[C@H](C3=NCc4cn(-c5c[nH]c6ccccc56)c5cccc3c45)CC[C@@H]2[C@@]2(O)N(Cc3ccccc3)C(=O)N(Cc3ccccc3)C(=O)N12 [Compound 3H, (6R,95,11aR,11bR)-9-(1-((1H-indole-3-yl))-1,3-dihydropyrrolo[4,3,2-de]isoquinolin-5-yl)-1,3-dibenzyl-11b-hydroxy-6-isopropylhexahydro-2H-pyrrolo [2',1':3,4]pyridazine [1,2-a][1,3,5] triazine-2,4,7 (3H. 6H)-trione]	A (a CPE inhibition effect of 5% or more)
O=C(NCc1ccc2ccccc2c1)[C@@H]1CC[C@H]2N1C(=O)[C@@H](Cc1ccccc1)N1C(=O)N(CC3CCCC3)C(=O)N(CC3CCCC3)[C@]21O [Compound 17D, (6R,9S,11aR,11bR)-6-Benzyl-1,3-bis (cyclopentylmethyl)-11b-h ydroxy-N-(naphthalen-2-ylmethyl)-2,4,7-trioxodecahydro-2H-pyrrolo[2',1':3,4] pyridazino[1,2-a][1,3,5] triazine-9-carboxamide]	A (a CPE inhibition effect of 5% or more)
CC(C)OC(=O)[C@@H]1CC[C@H]2N1C(=O)[C@@H](Cc1ccccc1)N1C(=O)N(Cc3cccs3)C(=O)N(Cc3cccs3)[C@]21O [Compound 18G, Isopropyl (6R,9S,11aR,11bR)-6-benzyl-11b-hydroxy-2,4,7-trioxo-1,3-bis(thiophen-2-ylmethyl)decahydro-2H-pyrrolo [2',1':3,4]pyridazine[1,2-a][1,3,5]triazine-9-carboxylate]	A (a CPE inhibition effect of 5% or more)
CCN(C(=O)NCCCN(C)C)C(=O)[C@@H]1CC[C@H]2N1C(=O)[C@@H](Cc1ccccc1)N1C(=O)N(Cc3cccs3)C(=O)N(Cc3cccs3)C21O (stereo partly drawn) [Compound 18H, (6R,9S,11aR)-6-benzyl-N-((3-(dimethylamino)propyl)carbamoil)-N-ethyl-11b-Hydroxy-2,4,7-trioxo-1,3-bis(thiophen-2-ylmethyl)decahydro-2H-pyrrolo[2',1':3,4] pyrazino[1,2-a][1,3,5]triazine-9-carboxamide]	A (a CPE inhibition effect of 5% or more)
Cc1noc([C@@H]2CC[C@H]3N2C(=O)[C@@H](Cc2ccccc2)N2C(=O)N(Cc4cccs4)C(=O)N(Cc4cccs4)C32O)n1 (stereo partly drawn) [Compound 18I, (6R,9S,11aR)-6-benzyl-11b-hydroxy-9-(3-methyl-1,2,4-oxadiazol-5-yl)-1,3-bis(thiophen-2-ylmethyl)hexahydro-2H-pyrrolo[2',1':3,4]pyridazine[1,2-a][1,3,5]triazine-2,4,7(3H,6H)-trione]	B (a CPE inhibition effect of less than 5% but 1% or more)

Same assay, conditions: Severe acute respiratory syndrome coronavirus 2, VeroE6/TMPRSS2, 72 h, read-out: Anti SARS-CoV-2 activity

SMILES	inhibition at 10 µM
CCOC(=O)[C@@H]1CCC2=C3N(Cc4ccccc4)C(=O)N(Cc4ccccc4)C(=O)N3[C@H](Cc3ccccc3)C(=O)N21 (stereo in doubt) [Compound 4B, Ethyl (6R,9S)-1,3,6-tribenzyl-2,4,7-trioxo-1,3,4,6,7,9,10,11-octahydro-2H-pyrrolo[2',1':3,4] pyrazino[1,2-a][1,3,5]triazine-9-carboxylate]	> 5%
CCOC(=O)[C@@H]1CC[C@H]2N1C(=O)[C@@H](Cc1ccccc1)N1C(=O)N(Cc3ccccc3)C(=O)N(Cc3ccccc3)[C@]21O [Compound 1A, Ethyl (6R,9S,11aR,11bR)-1,3,6-tribenzyl-11b-hydroxy-2,4,7-trioxodecahydro-2H-pyrrolo[2',1':3,4]pyrazino[1,2-a][1,3,5]triazine-9-carboxylate]	< 1%
O=C(NCc1ccc2ccccc2c1)[C@@H]1CCC2=C3N(Cc4ccccc4)C(=O)N(Cc4ccccc4)C(=O)N3[C@H](Cc3ccccc3)C(=O)N21 [Compound 1E, (6R,9S)-1,3,6-Tribenzyl-N-(naphthalen-2-ylmethyl)-2,4,7-trioxo-1,3,4,6,7,9,10,11-octahydro-2H-pyrrolo[2',1':3,4] pyrazino[1,2-a][1,3,5]triazine-9-carboxamide]	< 1%
CCOC(=O)[C@@H]1CCC2=C3N(Cc4ccccc4)C(=O)N(Cc4ccccc4)C(=O)N3[C@H](C(C)C)C(=O)N21 [Compound 3B, Ethyl (6R.9S) 1,3-dibenzyl 6 isopropyl-2.4.7 trioxo-1,3,4,6,7,9,10,11-octahydro 2H-pyrrolo[2',1':3.4]pyrazi no[1,2 a][1,3,5] triazine 9 carboxylate]	> 5%
CC(C)[C@@H]1C(=O)N2[C@H](C(=O)NCc3ccccc3)CC[C@@H]2[C@@]2(O)N(Cc3ccccc3)C(=O)N(Cc3ccccc3)C(=O)N12 [Compound 3F, (6R,9S,11aR,11bR)-N,1,3-tribenzyl-11b-hydroxy-6-isopropyl-2,4,7-trioxodecahydro-2H-pyrrolo[2',1':3,4]pyrazino[1,2-a][1,3,5]triazine-9-carboxamide]	> 5%
O=C(NCc1ccc2ccccc2c1)[C@H]1CCC2=C3N(Cc4ccccc4)C(=O)N(Cc4ccccc4)C(=O)N3[C@@H](Cc3ccccc3)C(=O)N21 [Compound 4E, (6S,9R)-1,3,6-Tribenzyl-N-(naphthalen-2-ylmethyl)-2,4,7-trioxo-1,3,4,6,7,9,10,1 1-octahydro-2H-pyrrolo [2',1':3,4]pyrazino[1,2-a] [1,3,5]triazine-9-carboxamide]	1 to 5%
CCOC(=O)[C@@H]1CC[C@H]2N1C(=O)[C@@H](Cc1ccc3ccccc3c1)N1C(=O)N(Cc3ccccc3)C(=O)N(Cc3ccccc3)[C@]21O [Compound 7A, Ethyl (6R,9S,11aR,11bR)-1,3-dibenzyl-11b-hydroxy-6-(naphthalen-2-ylmethyl)-2,4,7-trioxodecahydro-2H-pyrrolo[2',1' :3,4]pyrazino[1,2-a][1,3,5]triazine-9-carboxylate]	< 1%
O=C(NCc1ccc2ccccc2c1)[C@@H]1CCC2=C3N(Cc4ccccc4)C(=O)N(Cc4ccccc4)C(=O)N3[C@H](Cc3ccc4ccccc4c3)C(=O)N21 [Compound 7E, (6R,9S)-1,3-Dibenzyl-N,6-Bis(naphthalen-2-ylmethyl) -2,4,7-trioxo-1,3,4,6,7,9,10, 11-octahydro-2H-pyrrolo [2',1':3,4]pyrazino[1,2-a] [1,3,5]triazine-9-carboxamide]	1 to 5%
O=C(NCc1ccc2ccccc2c1)[C@@H]1CCC2=C3N(Cc4ccccc4)C(=O)N(Cc4ccccc4)C(=O)N3[C@H](CC3CCCC3)C(=O)N21 [Compound 8E, (6R,9S)-1,3-Dibenzyl-6-(cyclopentylmethyl)-N-(naphthalen-2-ylmethyl)-2,4,7-trioxo-1,3,4,6,7,9,10,11-octahydro-2H-pyrrolo [2',1':3,4]pyrazino[1,2-a] [1,3,5]triazine-9-carboxamide]	< 1%
O=C1[C@@H](Cc2ccccc2)N2C(=O)N(Cc3ccccc3)C(=O)N(Cc3ccccc3)C2=C2CCCN12 [Compound 9B, (R) 1.3.6-Tribenzyl-1,9,10,11-tetrahydro-2H-pyrrolo[2',1':3,4] pyridazino[1,2-a][1,3,5]triazine-2,4,7(3H,6H)-trione]	< 1%
O=C1[C@H](Cc2ccccc2)N2C(=O)N(Cc3ccccc3)C(=O)N(Cc3ccccc3)C2=C2C[C@@H](OCc3ccccc3)CN12 [Compound 11B, (6S,10R)-1,3,6-Tribenzyl-10-(benzoxy)-1,9,10,11-tetrahydro-2 H-pyrrolo[2',1':3,4]pyridazino [1,2-a][1,3,5]triazine-2,4,7 (3H,6H)-trione]	> 5%
O=C1[C@@H](Cc2ccccc2)N2C(=O)N(Cc3ccccc3)C(=O)N(Cc3ccccc3)C2=C2CCCCN12 [Compound 13B, (R) 1,3,6-Tribenzyl-9,10,11,12-tetrahydropyrido[2',1':3,4] pyrazino[1,2-a][1,3,5]triazine-2,4,7(1H,3H,6H)-trione]	1 to 5%
O=C1C(Cc2ccccc2)N2C(=O)N(Cc3ccccc3)C(=O)N(Cc3ccccc3)C2=C2C[C@@H](OCc3ccccc3)CN12 (stereo partly drawn) [Compound 15B, (6R,10R)-1,3,6-tribenzyl-10-(benzyloxy)-1,9,10,11-tetrahydro-2H-pyrrolo[2',1':3,4] pyridazino[1,2-a][1,3,5] triazine-2,4,7(3H,6H)-trione]	< 1%
O=C(NCc1ccc2ccccc2c1)[C@@H]1CCC2=C3N(c4ccccc4)C(=O)N(c4ccccc4)C(=O)N3[C@H](Cc3ccccc3)C(=O)N21 [Compound 16E, (6R,9S)-6-Benzyl-N-(naphthalen-2-ylmethyl)-2,4,7-trioxo-1,3-diphenyl-1,3,4,6,7,9,10,11-octahydro-2H-pyrrolo [2',1':3,4]pyrazino[1,2-a][1,3,5]triazine-9-carboxamide]	1 to 5%
CNC(=O)[C@@H]1CC[C@H]2N1C(=O)[C@@H](Cc1ccccc1)N1C(=O)N(Cc3cccs3)C(=O)N(Cc3cccs3)[C@]21O [Compound 18F, (6R,9S,11aR,11bR)-6-benzyl-11b-hydroxy-N-methyl-2,4,7-trioxo-1,3-bis(thiophen-2-ylmethyl)decahydro-2H-pyrrolo [2',1':3,4]pyrazino[1,2-a][1,3,5]triazine-9-carboxamide]	1 to 5%
